Measurements from patent US7893072B2, “Trp-p8 active compounds and therapeutic treatment methods” (Genentech, Inc., priority 2003, dated 2011).
Read-outs that look alike come from different tables or passages of the source.

Tests used:
293/Trp-p8.clone 10 = experiment: IC50 on 293/Trp-p8.clone 10; format: cell-based, human; settings: read-out: IC50 293/Trp-p8.c10
Procedure: (§1) Human Cell Killing in vitro by Compounds that Activate Trp-p8. Referring to the Figures, in FIG. 1 the effectiveness of selected cool-genic compounds in human cell killing was evaluated. The order and potency of cool-genic compounds were compared in two related human cell lines, one was 293 cells expressing Trp-p8 and a second was matched 293 cells lacking (not expressing) Trp-p8 used as a control. There were about 50,000 cells per well at plating. The cool-genic compounds were added at plating. The cells were treated by exposing the cells to the individual compounds at varying concentrations over about 0.1 to about 1,000 microM for 72 hours. […] FIGS. 1A and 1C show the response of cells expressing Trp-p8 and treated with the indicated numbered or named coolgenic compounds. FIGS. 1B and 1D show the response of cells without (not expressing) Trp-p8 and also treated with the indicated coolgenic compounds. […] Compound IIa4-1 had the best kill (IC50<1 microM) for cells expressing Trp-p8.

293/Trp-p8.clone 18 = experiment: IC50 on 293/Trp-p8.clone 18; format: cell-based, human; settings: read-out: IC50 293/Trp-p8.c18
Procedure: as §1

PC3/Trp-p8 = PC3/Trp-p8 cell killing; format: cell-based, human
[1] = test system: 293 cells expressing Trp-p8; experiment: Human cell killing in vitro, 293 cells expressing Trp-p8; format: cell-based
Procedure: as §1

Trp-p8 = biological target: T1, Trp-p8 (Homo sapiens, UniProt Q7Z2W7); experiment: Calcium ion uptake / flux (FLIPR) in cells expressing Trp-p8; format: cell-based; settings: for Peak (FLIPR): maximum calcium ion flux at 10 microM
T1 construct: expressed in transfected cells; host or cells: 293 and PC3 cells expressing Trp-p8 (non-expressing controls: 293, PC3, PC3/neo)
T1 sequence (Q7Z2W7 whole entry): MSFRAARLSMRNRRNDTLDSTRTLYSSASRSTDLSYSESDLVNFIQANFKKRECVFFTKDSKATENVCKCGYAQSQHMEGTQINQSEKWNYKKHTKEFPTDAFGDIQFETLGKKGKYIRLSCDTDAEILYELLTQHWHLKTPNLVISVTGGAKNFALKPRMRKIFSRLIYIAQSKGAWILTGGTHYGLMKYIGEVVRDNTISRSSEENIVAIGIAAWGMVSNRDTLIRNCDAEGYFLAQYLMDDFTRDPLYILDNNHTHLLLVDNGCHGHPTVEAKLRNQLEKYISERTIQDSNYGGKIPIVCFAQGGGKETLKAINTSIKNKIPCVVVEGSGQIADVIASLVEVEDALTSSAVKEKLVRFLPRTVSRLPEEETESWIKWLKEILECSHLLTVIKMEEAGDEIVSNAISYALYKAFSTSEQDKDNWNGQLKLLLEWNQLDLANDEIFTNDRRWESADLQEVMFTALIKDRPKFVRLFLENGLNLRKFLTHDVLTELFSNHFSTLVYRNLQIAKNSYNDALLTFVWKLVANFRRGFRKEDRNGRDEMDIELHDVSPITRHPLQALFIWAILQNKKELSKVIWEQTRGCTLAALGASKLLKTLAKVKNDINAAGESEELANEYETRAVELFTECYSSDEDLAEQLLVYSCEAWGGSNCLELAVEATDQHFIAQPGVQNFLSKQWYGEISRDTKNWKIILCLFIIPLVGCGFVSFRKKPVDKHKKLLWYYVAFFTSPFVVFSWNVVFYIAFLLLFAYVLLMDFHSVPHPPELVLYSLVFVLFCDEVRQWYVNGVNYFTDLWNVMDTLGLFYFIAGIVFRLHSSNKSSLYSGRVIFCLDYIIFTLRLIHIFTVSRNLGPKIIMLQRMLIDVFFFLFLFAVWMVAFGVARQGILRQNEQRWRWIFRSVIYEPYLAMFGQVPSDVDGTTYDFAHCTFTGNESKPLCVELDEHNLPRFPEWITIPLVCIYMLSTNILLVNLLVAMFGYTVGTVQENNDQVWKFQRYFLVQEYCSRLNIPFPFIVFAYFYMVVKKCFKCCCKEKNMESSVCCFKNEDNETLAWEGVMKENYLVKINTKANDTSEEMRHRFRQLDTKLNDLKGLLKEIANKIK
From the text: General methods and materials disclosed in R. Skyryma, et al., J. Physiology, 2000, 527.1, 71-83, for assessing and measuring calcium ion flux or cell uptake, and induction of apoptosis were adapted for use in the present disclosure and as illustrated herein. Other test methods and procedures such as described below, including cell line culturing, transfection, and in vivo and in vitro tumor growth inhibition, are readily apparent to one of ordinary skill in the art upon comprehending the disclosure.
Calcium ion uptake experiments were conducted as follows. Calcium uptake was measured for cells expressing Trp-p8 tumor antigen and for cells not expressing Trp-p8 tumor antigen after each cell line was contacted with cool-genic compounds of the present disclosure. […] Cells not expressing tumor antigen had essentially no observable calcium uptake over all of the cool-genic compound concentrations. […] Cell lines included non-expressing lines: 293, PC3, and PC3/neo; and tumor antigen expressing lines: […].

PC3/Trp-p8.clone 21 = experiment: IC50 on PC3/Trp-p8.clone 21; format: cell-based; settings: Homo sapiens, PC3/Trp-p8.clone 21, in duplicate

Peak (FLIPR) (Trp-p8)	SMILES	IC50 (293/Trp-p8.clone 10; Homo sapiens)	IC50 (293/Trp-p8.clone 18; Homo sapiens)	also measured
–	CCc1ccc(NC(=O)[C@@H]2C[C@H](C)CC[C@H]2C(C)C)cc1 [IIa4-8]	730 nM	680 nM	–
29,000	CCOC(=O)CNC(=O)C1CC(C)CCC1C(C)C (centres unmarked) [XIII-1]	–	–	PC3/Trp-p8 Cell Killing (PC3/Trp-p8): Yes; 293/Trp-p8 Cell Killing [1]: Yes
29,000	CCCCCP(=O)(C(C)CC)C(C)CC (centres unmarked) [IV-2]	–	–	–
–	CC(C)[C@@H]1CC[C@@H](C)C[C@H]1C(=O)Nc1ccc(F)cc1 [IIa4-6]	3580 nM	3780 nM	–
20,000	O=C1NC(c2cccc([N+](=O)[O-])c2)=CCN1c1ccccc1O [Icilin, 3-(2-Hydroxy-phenyl)-6-(3-nitro-phenyl)-3,4-dihydro-1H-pyrimidin-2-one, reference compound]	79200 nM	–	–
–	CC(C)[C@@H]1CC[C@@H](C)C[C@H]1C(=O)Nc1ccc(C(C)(C)C)cc1 [IIa4-11, 2-Isopropyl-5-methyl-cyclohexanecarboxylic acid(4-tert-butyl-phenyl)-amide]	1230 nM	1410 nM	–
25,100	CC1CCC(C(C)C)C(C(=O)NC(C)C)C1 (centres unmarked) [IIb-2]	–	–	PC3/Trp-p8 Cell Killing (PC3/Trp-p8): Yes; 293/Trp-p8 Cell Killing [1]: Yes
–	CCC(C)c1ccc(NC(=O)[C@@H]2C[C@H](C)CC[C@H]2C(C)C)cc1 (some centres unmarked) [IIa4-10, 2-Isopropyl-5-methyl-cyclohexanecarboxylic acid(4-sec-butyl-phenyl)-amide]	3590 nM	1080 nM	–
5,000	CNC(=O)C(C)(C(C)C)C(C)C [III-1]	–	–	–
–	COc1ccc(NC(=O)[C@@H]2C[C@H](C)CC[C@H]2C(C)C)cc1F [IIa6-1]	790 nM	600 nM	–
–	Cc1cc(NC(=O)[C@@H]2C[C@H](C)CC[C@H]2C(C)C)ccc1C(C)C [IIa6-4, 2-Isopropyl-5-methyl-cyclohexanecarboxylic acid(4-isopropyl-3-methyl-phenyl)-amide]	5050 nM	4370 nM	–
–	COc1ccccc1NC(=O)[C@@H]1C[C@H](C)CC[C@H]1C(C)C [IIa8-1]	16700 nM	17600 nM	–
17,000	CC1CCC(C(C)C)C(C(=O)OCCO)C1 (centres unmarked) [Compound V-2]	–	–	–
31,000	CCCCCCCP(=O)(C(C)CC)C(C)CC (centres unmarked) [IV-1]	–	–	293/Trp-p8 Cell Killing [1]: Yes
–	COc1ccc(NC(=O)[C@@H]2C[C@H](C)CC[C@H]2C(C)C)c(C)c1 [IIa12-1]	1140 nM	930 nM	–
–	CC(C)c1ccc(NC(=O)[C@@H]2C[C@H](C)CC[C@H]2C(C)C)cc1 [IIa4-4]	760 nM	980 nM	IC50 (PC3/Trp-p8.clone 21): 3210 nM
–	CC1CCC(C(C)C)C(C(=O)Nc2ccc(N3CCOCC3)cc2)C1 (centres unmarked) [IIa4-9, 2-Isopropyl-5-methyl-cyclohexanecarboxylic acid (4-morpholin-4-yl-phenyl)-amide]	1280 nM	1450 nM	–
31,000	COc1ccc(NC(=O)C2CC(C)CCC2C(C)C)cc1 (centres unmarked) [IIa4-1, 2-Isopropyl-5-methyl-cyclohexanecarboxylic acid(4-methoxy-phenyl)-amide]	420 nM	580 nM	IC50 (PC3/Trp-p8.clone 21): 1640 nM; IC50 (293/Trp-p8.clone 18): 450 nM; PC3/Trp-p8 Cell Killing (PC3/Trp-p8): Yes; 293/Trp-p8 Cell Killing [1]: Yes; IC50 ([1]; Homo sapiens, HEK293, 72 hours, about 50,000 cells per well, read-out: IC50 (kill) for cells expressing Trp-p8): < 1000 nM; calcium uptake (Trp-p8; cells expressing Trp-p8, about 0.0001 to about 10 microM): particularly high calcium uptake

Peak (FLIPR) (Trp-p8)	SMILES	IC50 (293/Trp-p8.clone 10; Homo sapiens)	IC50 (293/Trp-p8.clone 18; Homo sapiens)	also measured
25,000	COC(=O)CNC(=O)C1CC(C)CCC1C(C)C (centres unmarked) [XIII-2]	–	–	–
–	CC(C)[C@@H]1CC[C@@H](C)C[C@H]1C(=O)Nc1ccccc1 [IIa4-2]	3210 nM	3380 nM	–
–	CCCc1ccc(NC(=O)[C@@H]2C[C@H](C)CC[C@H]2C(C)C)cc1 [IIa4-12, 2-Isopropyl-5-methyl-cyclohexanecarboxylic acid(4-propyl-phenyl)-amide]	5650 nM	4930 nM	IC50 (PC3/Trp-p8.clone 21): 12900 nM
–	Cc1ccc(NC(=O)[C@@H]2C[C@H](C)CC[C@H]2C(C)C)cc1 [IIa4-7]	1210 nM	1140 nM	–
25,100	CC1CCC(C(C)C)C(C(=O)NC(C)(C)C)C1 (centres unmarked) [IIb-4]	–	–	293/Trp-p8 Cell Killing [1]: Yes
–	COc1ccc(NC(=O)C2CC(C)CCC2C(C)C)cc1Cl (centres unmarked) [IIa6-2, 2-Isopropyl-5-methyl-cyclohexanecarboxylic acid(3-chloro-4-methoxy-phenyl)-amide]	–	–	IC50 (293/Trp-p8.clone 10): 3100 nM; IC50 (293/Trp-p8.clone 18): 2570 nM
22,000	CCCCCCP(=O)(C(C)CC)C(C)CC (centres unmarked) [IV-3]	–	–	–
17,500	CC1CCC(C(C)C)C(C(=O)OCCOCCO)C1 (centres unmarked) [Compound V-4]	–	–	–
–	COc1cccc(NC(=O)[C@@H]2C[C@H](C)CC[C@H]2C(C)C)c1 [IIa10-1]	3800 nM	3690 nM	–
9,600	CC1CCC(C(C)C)C(C(=O)O)C1 (centres unmarked) [Compound V-1]	–	–	–
–	CC1CCC(C(C)C)C(C(=O)Nc2ccc3c(c2)CCC3)C1 (centres unmarked) [IIa6-3, 2-Isopropyl-5-methyl-cyclohexanecarboxylic acid indan-5-ylamide]	1350 nM	1710 nM	–
–	CC(C)[C@@H]1CC[C@@H](C)C[C@H]1C(=O)Nc1cccc(F)c1 [IIa10-2]	6310 nM	2910 nM	–
23,300	CCC(C)NC(=O)C1CC(C)CCC1C(C)C (centres unmarked) [IIb-5]	–	–	–
–	CC(C)[C@@H]1CC[C@@H](C)C[C@H]1C(=O)Nc1ccc(Cl)cc1 [IIa4-5]	1990 nM	17600 nM	–
25,000	CCNC(=O)C1CC(C)CCC1C(C)C (centres unmarked) [IIb-1]	–	–	–
–	CC(C)[C@@H]1CC[C@@H](C)C[C@H]1C(=O)Nc1ccc(O)cc1 [IIa4-3]	1230 nM	1050 nM	IC50 (PC3/Trp-p8.clone 21): 4270 nM
25,100	CC1CCC(C(C)C)C(C(=O)NC(C)(C)CO)C1 (centres unmarked) [IIb-3]	–	–	PC3/Trp-p8 Cell Killing (PC3/Trp-p8): Yes; 293/Trp-p8 Cell Killing [1]: Yes
